Tests used:
[1] = system: GL261 cells transfected to over-express human TDO; assay: MTT cell viability in the cellular TDO assay; format: cell-based; details: same experiment as cellular TDO assay
Method: The viability of the cells in each well in the same experiment was determined using the 3-(4,5-dimethylthiazolyl-2-yl)-2,5-diphenyltetrazolium bromide (MTT) colourimetric assay.

[2] = molecular target: Recombinant human IDO1 (rhIDO1) (Homo sapiens (Human), UniProt P14902); assay: Enzymatic assay for IDO1 activity; format: biochemical; details: rhIDO1 9 nM, 80 μM TRP, 37° C. 30 min
Method: Recombinant human IDO1 (rhIDO1) was expressed and purified from cultures of EC538 strain of E. coli transformed with pREP4 and pQE9-IDO plasmid. Reaction mixes were set up in 384-well microplates containing 50 mM phosphate buffer, 10 mM ascorbic, 10 μM methylene blue, 100 μg/mL catalase, 80 μM TRP, 0.01% Tween 20 (v/v) mixed with rhIDO1 (15 μL) at a final concentration of 9 nM in a total volume of 30 μL assay medium. The plates were incubated at 37° C. for 30 min, and the enzymatic reaction was terminated by adding piperidine (200 mM) and heated at 65° C. for 20 min. Fluorescence intensity was read at λex 400 nm and λem 500 nm. Test compounds were dissolved in 100% DMSO and pre-diluted in assay medium prior to adding rhIDO1. IDO1 inhibition (%) was calculated as
[formula] All experiments were carried out in triplicates, and statistical Analyses were conducted in Prism v5 (Graphpad Software, Inc., La Jolla, Calif., USA). Cell-Based Assay for IDO1 Inhibition

[3] = molecular target: human IDO1 (LLTC-hIDO1 cells) (Homo sapiens, UniProt P14902); assay: Cell-based assay for IDO1 inhibition (kynurenine in supernatant); details: IDO1-transfected Lewis Lung carcinoma cells, 24 h; read-out: Cellular IC50
Method: Culture supernatant from each well was then transferred into a fresh, flat-bottomed 96-well plate, mixed with trichloroacetic acid (10% final concentration) and incubated for 20 min at 60° C. […] The absorbance of each well was read at 480 nm, and the concentration that inhibited 50% cellular enzyme activity was calculated.

[4] = molecular target: human TDO (GL261 cells transfected to over-express full length human TDO) (Homo sapiens (Human), UniProt P48775); assay: Cell-based assay for TDO inhibition; details: GL261 cells over-expressing human TDO, 24 h; read-out: Cellular IC50
Method: Culture supernatant from each well was then transferred into a fresh, flat-bottomed 96-well plate, and kynurenine content was determined as described above for the IDO1 assay, and the concentration that inhibited 50% cellular enzyme activity was calculated.

[5] = system: Lewis Lung carcinoma cells transfected to express IDO1 (LLTC-hIDO1); assay: MTT cell viability in the cellular IDO1 assay; format: cell-based; details: same experiment as cellular IDO1 assay
Method: The viability of the cells in each well in the same experiment was determined using the 3-(4,5-dimethylthiazolyl-2-yl)-2,5-diphenyltetrazolium bromide (MTT) colourimetric assay. After the removal of the supernatant for determination of IDO1 inhibition, the cells were incubated with MTT (500 μg/mL) until crystal formation was observed. […] DMSO (100 μL/well) was added to dissolve the crystals and then the absorbance in each well was measured at 570 nm. Cell viability in each well was expressed as a percentage of untreated controls. Triplicate cultures were used for all experiments unless stated otherwise.

human TDO (GL261 cells transfected to over-express full length human TDO), sequence (P48775 whole entry): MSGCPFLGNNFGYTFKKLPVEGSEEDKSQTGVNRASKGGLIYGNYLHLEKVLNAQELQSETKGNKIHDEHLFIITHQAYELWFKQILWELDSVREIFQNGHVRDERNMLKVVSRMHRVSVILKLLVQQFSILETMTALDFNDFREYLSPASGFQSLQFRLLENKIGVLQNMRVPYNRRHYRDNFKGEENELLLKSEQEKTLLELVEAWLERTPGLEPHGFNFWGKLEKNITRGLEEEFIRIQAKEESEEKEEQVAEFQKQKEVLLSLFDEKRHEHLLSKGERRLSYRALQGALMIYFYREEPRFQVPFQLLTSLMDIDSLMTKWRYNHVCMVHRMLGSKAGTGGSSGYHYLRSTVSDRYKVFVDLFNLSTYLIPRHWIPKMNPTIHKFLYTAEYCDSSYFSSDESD
Recombinant human IDO1 (rhIDO1), sequence (P14902 whole entry): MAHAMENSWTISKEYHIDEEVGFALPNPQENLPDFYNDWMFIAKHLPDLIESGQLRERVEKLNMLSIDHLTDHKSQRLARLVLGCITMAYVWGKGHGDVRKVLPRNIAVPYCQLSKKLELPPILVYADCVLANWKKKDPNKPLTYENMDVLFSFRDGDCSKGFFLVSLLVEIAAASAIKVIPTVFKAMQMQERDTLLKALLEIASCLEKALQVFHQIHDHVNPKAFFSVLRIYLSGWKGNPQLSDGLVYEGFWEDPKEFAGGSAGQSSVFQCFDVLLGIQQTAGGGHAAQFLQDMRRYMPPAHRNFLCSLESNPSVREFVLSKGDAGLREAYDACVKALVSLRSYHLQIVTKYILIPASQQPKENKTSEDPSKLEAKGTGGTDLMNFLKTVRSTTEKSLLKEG

Row | Structure (SMILES) | IC50 [2] [µM] | IC50 [3] [µM] | IC50 [4] [µM] | IC50 [5] [µM] | IC50 [1] [µM]
1 | Nc1noc2nc(Cl)ccc12 [Compound 11, 6-Chloroisoxazolo[5,4-b]pyridin-3-amine] | 1 to 10 | < 1 | < 1 | > 100 | > 100
2 | Cc1ncc2c(N)noc2n1 [Compound 64, 6-Methylisoxazolo[5,4-d]pyrimidin-3-amine] | > 100 | 10 to 100 |  | > 100 | 
3 | CSc1nc(-c2ccccc2)nc2onc(N)c12 [Compound 65, 4-(Methylthio)-6-phenylisoxazolo[5,4-d]pyrimidin-3-amine] | > 100 | > 100 |  | > 100 | 
4 | Nc1noc2nc(Cl)c(F)cc12 [Compound 66, 6-Chloro-5-fluoroisoxazolo[5,4-b]pyridin-3-amine] | < 1 | < 1 | < 1 | > 100 | > 100
5 | Nc1noc2nc(Cl)c(Cl)cc12 [Compound 67, 5,6-Dichloroisoxazolo[5,4-b]pyridin-3-amine] | < 1 | 1 to 10 |  | > 100 | 
6 | Nc1noc2nc(Cl)cc(C(F)(F)F)c12 [Compound 68, 6-Chloro-4-(trifluoromethyl)isoxazolo[5,4-b]pyridin-3-amine] | > 100 | 10 to 100 |  | > 100 | 
7 | COCC#Cc1cnc2onc(N)c2c1 [Compound 69, 5-(3-Methoxyprop-1-yn-1-yl)isoxazolo[5,4-b]pyridin-3-amine] | > 100 | 10 to 100 |  | > 100 | 
8 | COc1ccc(-c2ccc3c(N)noc3n2)cc1 [Compound 70, 6-(4-Methoxyphenyl)isoxazolo[5,4-b]pyridin-3-amine] | > 100 | > 100 |  | > 100 | 
9 | Nc1noc2nc(-c3ccc(F)cc3)ccc12 [Compound 71, 6-(4-Fluorophenyl)isoxazolo[5,4-b]pyridin-3-amine] | > 100 | 10 to 100 |  | > 100 | 
10 | Nc1noc2nc(-c3ccc(F)cc3F)ccc12 [Compound 73, 6-(2,4-Difluorophenyl)isoxazolo[5,4-b]pyridin-3-amine] | > 100 | 10 to 100 |  | > 100 | 
11 | CN(C)CCOc1ccc2c(N)noc2n1 [Compound 77, 6-(2-(Dimethylamino)ethoxy)isoxazolo[5,4-b]pyridin-3-amine] | > 100 | > 100 |  | > 100 | 
12 | Nc1noc2nc(OCCN3CCOCC3)ccc12 [Compound 78, 6-(2-Morpholinoethoxy)isoxazolo[5,4-b]pyridin-3-amine] | > 100 | > 100 |  | > 100 | 
13 | CSc1ccc2c(N)noc2n1 [Compound 79, 6-(Methylthio)isoxazolo[5,4-b]pyridin-3-amine] | 10 to 100 | 1 to 10 |  | > 100 | 
14 | COC(=O)c1ccc2c(N)noc2n1 [Compound 82, Methyl 3-aminoisoxazolo[5,4-b]pyridine-6-carboxylate] | > 100 | 10 to 100 |  | > 100 | 
15 | Nc1noc2nc(Oc3ccccc3Cl)ccc12 [Compound 84, 6-(2-Chlorophenoxy)isoxazolo[5,4-b]pyridin-3-amine] | 10 to 100 | 10 to 100 |  | > 100 | 
16 | Nc1noc2nc(Oc3ccccc3OC(F)(F)F)ccc12 [Compound 87, 6-(2-(Trifluoromethoxy)phenoxy)isoxazolo[5,4-b]pyridin-3-amine] | > 100 | 10 to 100 |  | > 100 | 
17 | COc1ccccc1Oc1ccc2c(N)noc2n1 [Compound 90, 6-(2-Methoxyphenoxy)isoxazolo[5,4-b]pyridin-3-amine] | > 100 | 10 to 100 |  | > 100 | 
18 | Nc1noc2nc(Oc3cccc(C(F)(F)F)c3)ccc12 [Compound 93, 6-(3-(Trifluoromethyl)phenoxy)isoxazolo[5,4-b]pyridin-3-amine] | > 100 | 10 to 100 |  | > 100 | 

Continued, in another order:

Row | IC50 [2] [µM] | IC50 [3] [µM] | IC50 [4] [µM] | IC50 [5] [µM] | Structure (SMILES) | IC50 [1] [µM]
19 | 1 to 10 | < 1 | 1 to 10 | > 100 | Cc1nc2onc(N)c2c(C)c1Cl [Compound 3, 5-Chloro-4,6-dimethylisoxazolo[5,4-b]pyridin-3-amine] | > 100
20 | > 100 | > 100 |  | > 100 | Nc1noc2nc(-c3ccc(Cl)cc3Cl)ccc12 [Compound 72, 6-(2,4-Dichlorophenyl)isoxazolo[5,4-b]pyridin-3-amine] | 
21 | > 100 | 1 to 10 |  | > 100 | Nc1noc2nc(-c3cccs3)ccc12 [Compound 74, 6-(2-Thienyl)isoxazolo[5,4-b]pyridin-3-amine] | 
22 | > 100 | > 100 |  | > 100 | Cn1nccc1-c1ccc2c(N)noc2n1 [Compound 75, 6-(1-Methyl-1H-pyrazol-5-yl)isoxazolo[5,4-b]pyridin-3-amine] | 
23 | > 100 | > 100 |  | > 100 | CN(C)CCCOc1ccc2c(N)noc2n1 [Compound 76, 6-(3-(Dimethylamino)propoxy)isoxazolo[5,4-b]pyridin-3-amine] | 
24 | > 100 | 10 to 100 |  | > 100 | CS(=O)(=O)c1ccc2c(N)noc2n1 [Compound 80, 6-(methylsulfonyl)isoxazolo[5,4-b]pyridin-3-amine] | 
25 | > 100 | > 100 |  | > 100 | Nc1noc2nc(C(=O)O)ccc12 [Compound 81, 3-Aminoisoxazolo[5,4-b]pyridine-6-carboxylic acid] | 
26 | > 100 | 10 to 100 |  | > 100 | Nc1noc2nc(Oc3cccc(OC(F)(F)F)c3)ccc12 [Compound 88, 6-(3-(Trifluoromethoxy)phenoxy)isoxazolo[5,4-b]pyridin-3-amine] | 
27 | > 100 | 10 to 100 | 10 to 100 | > 100 | Nc1noc2nc(Oc3ccc(OC(F)(F)F)cc3)ccc12 [Compound 89, 6-(4-(Trifluoromethoxy)phenoxy)isoxazolo[5,4-b]pyridin-3-amine] | > 100
28 | > 100 | 1 to 10 |  | > 100 | COc1cccc(Nc2ccc3c(N)noc3n2)c1 [Compound 95, N^6-(3-Methoxyphenyl)isoxazolo[5,4-b]pyridine-3,6-diamine] | 
29 | > 100 | > 100 |  | > 100 | COc1ccc(Nc2ccc3c(N)noc3n2)cc1 [Compound 96, N^6-(4-Methoxyphenyl)isoxazolo[5,4-b]pyridine-3,6-diamine] | 

Source: patent US10888567B2, “Inhibitors of tryptophan dioxygenases (IDO1 and TDO) and their use in therapy” (AUCKLAND UNISERVICES LIMITED, priority 2014, dated 2021)
